Experimental data from paper PMC7357040, “Strategy for Designing Selective Lysosomal Acid α-Glucosidase Inhibitors: Binding Orientation and Influence on Selectivity” (Molecules, 2020).

How the values were obtained:
ER α-glucosidase II = biological target: T1, ER α-glucosidase II (Rattus norvegicus, UniProt A0A8I6GFL3); assay: ER α-glucosidase II inhibition assay, enzyme prepared from rat liver, 4-nitrophenyl-α-D-glucopyranoside substrate; format: biochemical; settings: for IC50: rat liver enzyme, pH 6.8, 37 °C 30 min, read-out: IC50 ER α-Glcase II
T1 construct: ER α-glucosidase II was prepared from the rat liver; from tissue; host or cells: rat liver
T1 sequence (A0A8I6GFL3 33-944): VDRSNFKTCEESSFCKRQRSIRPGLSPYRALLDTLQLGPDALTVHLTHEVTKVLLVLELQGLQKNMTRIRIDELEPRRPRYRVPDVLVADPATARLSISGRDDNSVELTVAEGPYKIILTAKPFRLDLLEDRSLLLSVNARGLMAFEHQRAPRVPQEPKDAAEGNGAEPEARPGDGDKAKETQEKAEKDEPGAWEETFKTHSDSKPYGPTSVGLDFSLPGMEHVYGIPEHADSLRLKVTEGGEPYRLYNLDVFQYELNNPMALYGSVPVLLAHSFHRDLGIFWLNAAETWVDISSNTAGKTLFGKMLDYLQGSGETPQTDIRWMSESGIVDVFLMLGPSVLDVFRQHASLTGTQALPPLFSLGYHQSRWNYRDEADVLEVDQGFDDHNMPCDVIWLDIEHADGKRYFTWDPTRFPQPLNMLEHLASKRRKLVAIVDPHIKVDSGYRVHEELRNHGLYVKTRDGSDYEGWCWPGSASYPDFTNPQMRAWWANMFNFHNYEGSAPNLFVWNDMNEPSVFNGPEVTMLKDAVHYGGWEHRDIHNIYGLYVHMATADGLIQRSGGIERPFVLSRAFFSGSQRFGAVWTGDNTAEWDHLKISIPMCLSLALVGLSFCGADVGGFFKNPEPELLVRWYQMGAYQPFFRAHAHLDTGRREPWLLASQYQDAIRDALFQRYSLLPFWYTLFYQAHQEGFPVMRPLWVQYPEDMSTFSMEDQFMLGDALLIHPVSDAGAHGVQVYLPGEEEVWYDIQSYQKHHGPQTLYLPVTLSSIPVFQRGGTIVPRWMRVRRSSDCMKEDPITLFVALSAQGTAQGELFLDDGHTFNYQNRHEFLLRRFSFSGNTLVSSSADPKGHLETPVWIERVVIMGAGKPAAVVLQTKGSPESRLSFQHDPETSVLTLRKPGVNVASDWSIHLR
Experimental: (§1) The inhibitory activity toward lysosomal acid α-glucosidase (GAA) was measured with Myozyme (Genzyme; Boston, MA, USA) as the enzyme source, and 4-methylumbelliferyl-α-D-glucopyranoside (Sigma-Aldrich Co.; St. Louis, Mo, USA) as substrate. The reaction mixture consisted 100 mM McIlvaine buffer (pH 6.8), 0.25% sodium taurocholate and 0.1% Triton X-100 (Nacalai Tesque Inc.; Kyoto, Japan), and the appropriate amount of enzyme. The reaction mixture was pre-incubated at 0 °C for 45 min, and the reaction was started by the using 4 mM substrate solution, followed by incubation at 37 °C for 30 min. The reaction was stopped by the addition of 1.6 mL of the solution of 400 mM Glycine-NaOH solution (pH 10.6). The released 4-methylumbelliferone was measured (excitation 362 nm, emission 450 nm) with a F-4500 fluorescence spectrophotometer (Hitachi, Tokyo, Japan). ER α-glucosidase II was prepared from the rat liver according to the method of Hino et al.. For ER α-glucosidase II activities, 4-nitrophenyl-α-D-glucopyranoside (Sigma-Aldrich Co.; St. Louis, MO, USA) was used as substrate. The reaction mixture contained phosphate buffer (pH 6.8), 0.25% sodium taurocholate, and the appropriate amount of enzyme. The reaction mixture was pre-incubated at 0 °C for 30 min, and the reaction was started by the using 4 mM substrate solution, followed by incubation at 37 °C for 30 min. The reaction was stopped by adding 0.4 mL of 400 mM Na2CO3. The released p-nitrophenol was measured spectrometrically at 400 nm.

[1] = biological target: T2, lysosomal acid α-glucosidase (GAA) (Homo sapiens, UniProt P10253); assay: Lysosomal acid α-glucosidase (GAA) inhibition assay, Myozyme as enzyme source, 4-methylumbelliferyl-α-D-glucopyranoside substrate; format: biochemical; settings: for IC50: Myozyme, pH 6.8, 37 °C 30 min; for Selectivity Index ER α-Glcase II/GAA: ratio of IC50 ER α-glucosidase II / IC50 GAA
T2 construct: purchased Genzyme
Experimental: as §1

[2] = biological target: T2, lysosomal acid α-glucosidase (GAA); assay: In vitro thermostability of GAA at 47 °C, remaining enzyme activity; format: biochemical; settings: 10 µM compound, pH 6.8, incubation 60 min
Experimental: GAA was incubated in 100 mM McIlvaine buffer (pH 6.8) containing 0.25% sodium taurocholate and 0.1% Triton X-100 for 0, 20, 40, and 60 min, and the remaining enzyme activity was determined with 4-methylumbelliferl-α-D-glucopyranoside as substrate. The enzyme activity was 83% lost within 60 min under incubation without test samples, while the incubation with α-1-C-heptyl-LAB effectively stabilized GAA. The enzyme activity remained over 94% even under the incubation for 60 min in the presence of 10 µM α-1-C-heptyl-LAB (Figure 8). […] In contrast, 10 µM α-1-C-ethyl-LAB could not sufficiently protect the enzyme activity (50% activity remained at 60 min).
GAA was incubated at 47 °C in 100 mM sodium citrate buffer (pH 6.8) containing 1 mg/mL of bovine serum albumin (BSA) at various incubation times with or without iminosugars. Each value represents the mean ± SEM (n = 3).
The enzyme GAA was incubated at 47 °C in 100 mM McIlvaine buffer (pH 6.8) containing 0.25% sodium taurocholate and 0.1% Triton X-100 for 0, 20, 40, and 60 min. After incubation, the remaining GAA activity was assayed immediately using 4 mM 4-methylumbelliferyl-α-D-glucopyranoside as substrate.

Jack bean α-mannosidase = biological target: Jack bean α-mannosidase; parameters: method as in PMID 15771446; settings: Figure 1; cited from earlier work
[3] = biological target: lysosomal α-galactosidase A; parameters: method as in PMID 15771446; settings: Figure 1; cited from earlier work

Row | Compound | IC50 (ER α-glucosidase II) | IC50 [1] | Selectivity Index ER α-Glcase II/GAA [1] | other results
1 | OC[C@H]1NC[C@H](O)[C@@H](O)[C@@H]1O [DNJ, 1,5-Dideoxy-1,5-imino-D-glucitol, reference compound] | 8 ± 0.55 µM |  |  | 
2 | OC[C@@H]1NC[C@H](O)[C@H]1O [LAB, 1,4-Dideoxy-1,4-imino-L-arabinitol] | 2.8 ± 0.22 µM |  |  | Inhibition potency of GAA, times weaker than DNJ ([1]; relative to DNJ): 3.5 times; GAA enzyme activity remained [2]: 89%
3 | OC[C@H]1NC[C@@H](O)[C@@H](O)[C@@H]1O [DMJ, 1,5-dideoxy-1,5-imino-D-mannitol] |  |  |  | IC50 (Jack bean α-mannosidase): 774 µM
4 | OC[C@H]1NC[C@H](O)[C@@H](O)[C@H]1O [DGJ, 1,5-dideoxy-1,5-imino-D-galactitol] |  |  |  | IC50 [3]: 0.07 µM
5 | CCCC[C@@H]1N[C@@H](CO)[C@H](O)[C@H]1O [α-1-C-Butyl-LAB] | 228 ± 13 µM | 1.6 ± 0.04 µM | 142.5 | 

Continued, in another order:

Row | IC50 (ER α-glucosidase II) | IC50 [1] | Selectivity Index ER α-Glcase II/GAA [1] | Compound | other results
6 | 541 ± 26 µM | 11 ± 1.1 µM | 49.2 | CC[C@@H]1N[C@@H](CO)[C@H](O)[C@H]1O [α-1-C-Ethyl-LAB] | Inhibition of GAA, fold lower than LAB ([1]; relative to LAB): 21 fold; Inhibition of ER α-glucosidase II, fold weaker than LAB (ER α-glucosidase II; relative to LAB): 193 fold; GAA enzyme activity remained [2]: 50%
7 | 26 ± 2 µM | 2 ± 0.12 µM | 13.0 | C[C@@H]1N[C@@H](CO)[C@H](O)[C@H]1O [α-1-C-Methyl-LAB] | 
8 | 100 ± 6.2 µM | 0.71 ± 0.029 µM | 140.8 | CCCCCC[C@@H]1N[C@@H](CO)[C@H](O)[C@H]1O [α-1-C-Hexyl-LAB] | 
9 | 413 ± 50 µM | 7.4 ± 0.31 µM | 55.8 | CCC[C@@H]1N[C@@H](CO)[C@H](O)[C@H]1O [α-1-C-Propyl-LAB] | 
10 | 180 ± 19 µM | 1.1 ± 0.088 µM | 163.6 | CCCCC[C@@H]1N[C@@H](CO)[C@H](O)[C@H]1O [α-1-C-Pentyl-LAB] | 
11 | 74 ± 3.7 µM | 0.44 ± 0.044 µM | 168.2 | CCCCCCC[C@@H]1N[C@@H](CO)[C@H](O)[C@H]1O [α-1-C-Heptyl-LAB, α-1-C-heptyl-1,4-dideoxy-1,4-imino-L-arabinitol] | Selectivity index, fold better relative to the parent LAB ([1]; relative to LAB): 31 fold; GAA enzyme activity remained [2]: over 94%
